Each structure is given as a SMILES string.

The test system of the test is Chlorella protothecoides. Kind of test: Growth of Chlorella protothecoides in glycerol supplemented media: growth and total lipid yield. The format is cell-based. Conditions: glycerol supplemented medium. The source says:
Note that Chlorella protothecoides growth is enhanced by glycerol; a byproduct of biodiesel.

As for `OCC(O)CO` [glycerol], the increase in growth entry is recorded as “at least 10 fold” and the total lipid yield result was “enhanced”.
